Data as given in patent US11203582B2, “Benzamide derivatives for inhibiting endoplasmic reticulum (ER) stress” (The Board of Regents of the University of Oklahoma, priority 2017, dated 2021).

Assays:
[1] = system: STZ-induced diabetic mouse model; experiment: Streptozotocin (STZ)-induced diabetic mouse model; type: in vivo, C57BL/6 mice
Experimental: (A) Fasting blood glucose levels were measured in STZ-injected mice treated with vehicle control (n=6) or 13d (n=7). C57BL/6J mice were injected intraperitoneally once daily for 5 days with STZ (50 mg/kg body weight) and with either vehicle (n=6 mice) or 13d (5 mg/kg body weight; n=7 mice). Injections of vehicle or 13d alone were then continued for 2 more weeks. (B) Glucose tolerance test. Blood glucose levels measured at indicated time points after intraperitoneal injection of glucose (2 g/kg body weight). (C) Pancreases were sectioned and slides were stained with anti-insulin antibody (green, β-cell marker), anti-glucagon antibody (red, α-cell marker), and DAPI (blue). Slides were imaged with an Olympus FV1000 confocal microscope. Representative images are shown in (C). (D) Quantification of total islet area per section and β-cell number per islet. Total area of all islets per section calculated for a total of six sections using insulin-positive cells to demarcate islets. Data are the means±SEM of six sections from three mice. *p<0.05 **p<0.01, and ***p<0.001 by Student's t-test.
We next evaluated the in vivo efficacy of 13d using a streptozotocin (STZ)-induced diabetic mouse model. STZ induces ER stress in β-cells in addition to the increase in reactive oxygen species (ROS) production and DNA alkylation. C57BL/6 mice injected intraperitoneally with low dose STZ (50 mg/kg) once daily for 5 consecutive days develop diabetes; blood glucose levels increased gradually within a week of STZ treatment.
All procedures involving animals were performed in accordance with the protocol approved by the University of Oklahoma Health Science Center Institutional Animal Care and Use Committee (IACUC). C57BL/6 mice were obtained from The Jackson Laboratory (Bar Harbor, Me.) and maintained on a 12 h light (6:00 AM-6:00 PM)-12 h dark (6:00 PM-6:00 AM) cycle at an ambient temperature of 21° C. Mice were given free access to water and food. All experiments were performed with age-matched male mice. Compounds were dosed during light cycle. For streptozotocin (STZ)-induced diabetic model, ten-week-old C57BL/6 mice were injected intraperitoneally (i.p.) once daily for five days with STZ (dissolved in Na-Citrate Buffer; 50 mg/kg) and either 13d (5 mg/kg body weight; 2 mg/ml in 10% DMSO in saline buffer; n=7 mice) or vehicle (n=6 mice). Injections of vehicle or 13d alone were then continued for 2 more weeks. Every third day, animals were fasted for 5 h and blood was obtained by tail snip. Blood glucose levels were measured using a glucometer (Nova Statstrip Xpress; Data Science International, St. Paul, Minn.). At the end of the treatment period, mice were sacrificed and the pancreases were removed, fixed in formalin, and paraffin-embedded. Tissue blocks were serially sectioned at intervals of 100 μm and 6 sections were stained with an anti-insulin antibody (A0564, 1:500 dilution; Dako), anti-glucagon antibody (G2654, 1:500 dilution; Sigma), and DAPI (0.5 μg/ml). Insulin-positive cells were used to demarcate islets, and the total islet area was measured with an Olympus FV1000 confocal microscopy and quantified with Image-J histogram software.

[2] = system: INS2 mRNA; experiment: qRT-PCR of INS2 mRNA in Tm-treated INS-1 cells; type: cell-based, rat; details: Tm co-treatment, 24 h
Experimental: (A-D) INS-1 cells were treated with or without Tm (0.1 m/mL) in the presence of 13d at indicated concentrations or DMSO for 24 h. The mRNA levels of INS1 (A), INS2 (B), PDX1 (C), and MafA (D), were analyzed by qRT-PCR. Relative mRNA levels were normalized against the housekeeping gene Cyclophilin A using the comparative CT method. The results are the means of 3 replicate wells and are representative of 3 independent experiments. * P<0.05 and ** P<0.01 compared with Tm treatment alone. Bars indicate SD. (E) Insulin secretion by INS-1 cells incubated with 1.7 mM and 20 mM glucose in the presence or absence of Tm (0.1 μg/mL) and 13d. Secreted insulin was measured by ELISA after 24 h treatment. * P<0.05. The amount of insulin secreted in response to 1.7 mM glucose in the absence of Tm was set to 1.0 and was normalized with total protein concentration.
INS-1 cells were seeded at 4×10^5 cells/well in 6-well plates and treated with compounds for the indicated times. […] Relative mRNA levels were normalized against the housekeeping gene Cyclophilin A and were determined by ΔΔCt calculated from the difference in ΔCt values between the target gene and Cyclophilin A with and without treatment, based on comparative CT (cycle threshold) method. […]

Q: Which “total pancreatic islet β-cell area compared to vehicle-treated mice” value ([1]; STZ mice, 5 mg/kg) does the source give for `O=C(NCc1ccc(C(F)(F)F)cc1)c1cccc(CN2CCCCC2)c1` [Compound 13d, N-(4-trifluoromethylphenmethyl)-3-(N-piperidinyl)methyl benzamide] here?
A: Its value is “more than double”.

Q: What about the “fasting blood glucose level” value ([1]; STZ mice, 5 mg/kg i.p. once daily, after 3 weeks of treatment) of the same compound?
A: The value was 314 mg/dL.

Q: And the “total pancreatic islet β-cell area” value ([1]; STZ mice, 5 mg/kg, pancreatic sections at end of treatment)?
A: The value was 67.4±5.9%.

Q: And the “average number of α-cells” value ([1]; STZ mice, 5 mg/kg, vehicle vs 13d groups)?
A: Its value is “no obvious effect”.

Q: What about the “intraperitoneal glucose tolerance test, blood glucose vs vehicle-treated STZ group” value ([1]; overnight fasted STZ mice, 5 mg/kg, glucose 2 g/kg i.p.) of the same compound?
A: The value was “lower blood glucose levels at 15, and 30 min”.

Q: What about the “Tm-suppressed INS2 mRNA level” value [2] of the same compound?
A: Its value is “completely rescued”.
